# Measurements taken from PMC6753678, “Fueling Open Innovation for Malaria Transmission-Blocking Drugs: Hundreds of Molecules Targeting Early Parasite Mosquito Stages” (Frontiers in Microbiology, 2019).
# Where two headings read alike, the source gives them in different places.
# What was measured:
# [1] = test system: 3D7-strain P. falciparum asexual parasites; test: P. falciparum asexual growth inhibition assay (Pf GIA); type: cell-based, Plasmodium falciparum; conditions: dose response confirmation; read-out: Pf asexual growth inhibition assays IC50
# Method in brief: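 LDH readout: absorbance at 650 nm after 10 min at room temperature with lactate/APAD/NBT/diaphorase mix on thawed plates. Cultures (0.25% parasitemia, 2% hematocrit) were treated 72 h at 37°C in low-oxygen gas. Inhibition was normalised to 50 μM chloroquine and DMSO; n=3 biological replicates.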
# [2] = test system: P. berghei ookinete development; conditions: for % inhibition, Replicate A / % inhibition, Replicate B: primary screen at 1 μM
# HepG2 cells = test: HepG2 cytotoxicity assay; conditions: for IC50: read-out: HepG2 cytotoxicity assay IC50, dose response confirmation; for Pb ODA (this manuscript) HepG2 cytoxicity: HepG2 cytotoxicity listed with the Pb ODA data set (this manuscript)
# Method in brief: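 Percent inhibition derived from fluorescent viability readout, normalised to DMSO (negative) and 50 μM doxorubicin (positive). Compound incubation lasted 48 h at 37°C, 5% CO2, with 2,500 HepG2 cells/well in MEM plus 10% FBS and 1% NEAA.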
# [3] = read-out: Pb ODA IC50, this manuscript
# [4] = read-out: Pb Ookinete development assay IC50, dose response confirmation
# [5] = unified HepG2 value across the three screens
# [6] = read-out: Pb ODA (this manuscript) IC50, P. berghei ookinete development assay, this manuscript
# [7] = HepG2 values of the three screens unified
SMILES,IC50 [1],"Is compound selective in assay? Pb ODA active? ([2]; 1: YES, 0: NO)","% inhibition, Replicate A [2]","% inhibition, Replicate B [2]","IC50 [2, 3]","IC50 [2, 4]",IC50 (HepG2 cells),Unified cytotox (HepG2 cells; [5]),Is compound selective in assay? Pb ODA active? [2],"IC50 [2, 6]",Pb ODA (this manuscript) HepG2 cytoxicity (HepG2 cells),"HepG2 cytoxicity (Pb ODA, this manuscript) (HepG2 cells)",Unified cytotox (HepG2 cells; [7])
COc1ccc(-c2cnc(N)c(-c3ccc(C(N)=O)cc3)c2)cc1OC [TCMDC-133349],666 nM,1 (1: YES),68.77%,82.48%,430 nM,426 nM,100000 nM,100.00 µM,,,,,
Br.CCC(ON1C(N)=NC(N)=NC1(C)C)c1ccc(Cl)cc1 (stereo not shown) [TCMDC-131709],1.55 nM,,60.03%,57.14%,,3260 nM,5.13 nM,,0 (key: 1: YES; 0: NO),3260 nM,0.00513 µM,,
Cc1[nH]c(C)c(-c2ccc(Oc3ccc(Cl)cc3)cc2)c(=O)c1C [TCMDC-137378],< 0.2 nM,1 (1: YES),87.44%,100.49%,640 nM,636 nM,8610 nM,,,,,8.61 µM,8.61 µM
CCCN1CCN(CCCCNc2c3ccccc3nc3ccccc23)CC1.Cl [TCMDC-137576],238 nM,0 (0: NO),35.45%,63.99%,2330 nM,2320 nM,5370 nM,,,,,5.37 µM,5.37 µM
Cc1[nH]c(C)c(-c2ccc(Nc3ccc(C(F)(F)F)cn3)cc2)c(=O)c1Br [TCMDC-135546],14 nM,,85.12%,90.38%,,5.45 nM,980 nM,,1 (key: 1: YES; 0: NO),,0.98 µM,,
CS(=O)(=O)Cc1cccc(Nc2ncc(Cl)c(Nc3cccnc3C(N)=O)n2)c1.Cl [TCMDC-134166],273 nM,,102.49%,90.53%,,1200 nM,4790 nM,,0 (key: 1: YES; 0: NO),1210 nM,4.79 µM,,
Cc1[nH]c2ccc(-c3ccc(N(C)C)cc3)cc2c(=O)c1Cl [TCMDC-136188],227 nM,1 (1: YES),79.29%,60.77%,550 nM,547 nM,100000 nM,100.00 µM,,,,,
Cc1cc(=O)[nH]c(-n2nc(C)cc2NC(=O)C2(c3ccc(Cl)cc3)CCCC2)n1 [TCMDC-124943],967 nM,,55.02%,44.00%,,1380 nM,3310 nM,,0 (key: 1: YES; 0: NO),1380 nM,3.31 µM,,
Cc1[nH]c(C)c(-c2ccc(-c3ccc(OC(F)(F)F)cc3)cc2)c(=O)c1Cl [TCMDC-136060],77 nM,1 (1: YES),87.72%,84.45%,53.8 nM,54 nM,64600 nM,,,,,64.57 µM,64.57 µM
Cc1cc(=O)c(-c2ccc(Oc3cccc(OC(F)(F)F)c3)cc2)c(C)[nH]1 [TCMDC-137266],99 nM,,74.10%,97.06%,,205 nM,10700 nM,,1 (key: 1: YES; 0: NO),200 nM,10.72 µM,,
COc1ccc2nccc([C@@H](O)CN3CCC(NCc4cc5c(F)ccc(F)c5[nH]4)CC3)c2n1.CS(=O)(=O)O [TCMDC-140749],130 nM,,52.78%,27.90%,,3270 nM,14100 nM,,0 (key: 1: YES; 0: NO),3270 nM,14.13 µM,,
Cc1[nH]c(C)c(-c2ccc(OCc3ccc(OC(F)(F)F)cc3)nc2)c(=O)c1Cl [TCMDC-135271],67 nM,1 (1: YES),71.19%,76.52%,1070 nM,1070 nM,100000 nM,,,,,,100.00 µM
COc1ccc2nccc(NC(=O)C3(O)CCC(NCc4ccc5c(c4)NCCS5)CC3)c2n1.Cl (stereo not shown) [TCMDC-141406],1040 nM,,91.89%,114.20%,,347 nM,24300 nM,,1 (key: 1: YES; 0: NO),350 nM,24.27 µM,,
COc1ccc(Nc2ncc(OC)c(Nc3ccccc3C(N)=O)n2)cc1N1CCN(C)CC1.O=CO [TCMDC-134149],846 nM,,85.24%,71.46%,,270 nM,13500 nM,,1 (key: 1: YES; 0: NO),,13.49 µM,,
Cc1ccc(C2=NNC3(S2)C(=O)N(C)c2ccccc23)cc1 (stereo not shown) [TCMDC-123863],3270 nM,1 (1: YES),93.73%,58.53%,2440 nM,2440 nM,56900 nM,56.89 µM,,,,,
Nc1nc(N)c2c(ccc3c2ccn3Cc2ccc3c(c2)OCO3)n1 [TCMDC-137808],< 0.2 nM,0 (0: NO),57.79%,75.32%,450 nM,447 nM,32.4 nM,,,,,0.0324 µM,0.0324 µM
O=c1c2ccccc2[nH]c2cc(Cl)ccc12 [TCMDC-123989],1280 nM,1 (1: YES),43.19%,69.34%,1180 nM,1180 nM,50700 nM,50.70 µM,,,,,
CN(C)CCN(C)C(=O)c1cc(-c2ccncc2)c(-c2ccc(Cl)c(O)c2)o1.Cl [TCMDC-141393],2490 nM,1 (1: YES),35.76%,53.63%,1750 nM,1750 nM,53700 nM,53.70 µM,,,,,
CC(C)Cn1ncc2c3c(N)nc(N)nc3ccc21 [TCMDC-137970],80 nM,,76.14%,41.76%,,1750 nM,110 nM,,0 (key: 1: YES; 0: NO),1750 nM,0.11 µM,,
